# Measurements reported in patent publication US10105357B2, “Indication of antibiotic drugs for preparation of cancer inhibition pharmaceutical composition” (LAUNX BIOMEDICAL CO., LTD., priority 2014, dated 2018).
# Structures can show the parent of a compound that is named as a salt. Where two headings read alike, the source gives them in different places.
# How the values were obtained:
# Format in all cases: cell-based, human
# [1] = tested on: cancer cell lines; assay: Cell viability analysis (WST-1) on cancer cell lines; details: drug 10 μM, 72 hours, WST-1; Table 3
# [2] = tested on: HI650 (Lung Adenocarcinoma); assay: Cell viability analysis, lung cancer HI650; details: Homo sapiens
# [3] = tested on: A549 (Lung Adenocarcinoma); assay: Cell viability analysis, lung cancer A549; details: Homo sapiens
# [4] = tested on: AGS (Gastric Adenocarcinoma); assay: Cell viability analysis, gastric cancer AGS; details: Homo sapiens
# [5] = tested on: MKN-45 (Gastric Adenocarcinoma); assay: Cell viability analysis, gastric cancer MKN-45; details: Homo sapiens
# [6] = tested on: HepG2 (Hepatocellular Carcinoma); assay: Cell viability analysis, hepatic cancer HepG2; details: Homo sapiens
# [7] = tested on: LoVo (Colorectal Adenocarcinoma); assay: Cell viability analysis, colon cancer LoVo; details: Homo sapiens, LoVo
# [8] = tested on: A375 (Amelanotic Melanoma); assay: Cell viability analysis, skin cancer A375; details: Homo sapiens
# [9] = tested on: HeLa (Cervix Adenocarcinoma); assay: Cell viability analysis, cervical cancer HeLa; details: Homo sapiens, HeLa
# [10] = tested on: PC3 (p53−) (Prostate Adenocarcinoma); assay: Cell viability analysis, prostate cancer PC3; details: Homo sapiens
# [11] = tested on: TSGH-8301 (Urinary Bladder Carcinoma); assay: Cell viability analysis, bladder cancer TSGH-8301; details: Homo sapiens
# [12] = tested on: MCF7 (Mammary Gland, Adenocarcinoma); assay: Cell viability analysis, breast cancer MCF7; details: Homo sapiens
# [13] = tested on: HL-60 (Acute Promyelocytic Leukemia); assay: Cell viability analysis, leukemia HL-60; details: Homo sapiens
# [14] = NCI-H1650, 72 h, drug 10 μM, 72 hours, WST-1, OD450 nm, read-out: cell viability (survival rate), H1650
# [15] = A549, 72 h, drug 10 μM, 72 hours, WST-1, OD450 nm, read-out: cell viability (survival rate), A549
# [16] = 72 h, drug 10 μM, 72 hours, WST-1, OD450 nm, read-out: cell viability (survival rate), AGS
# [17] = MKN-45, 72 h, drug 10 μM, 72 hours, WST-1, OD450 nm, read-out: cell viability (survival rate), MKN-45
# [18] = HepG2, 72 h, drug 10 μM, 72 hours, WST-1, OD450 nm, read-out: cell viability (survival rate), HepG2
# [19] = 72 h, read-out: cell viability (survival rate), LoVo, drug 10 μM, 72 hours, WST-1, OD450 nm
# [20] = A-375, 72 h, drug 10 μM, 72 hours, WST-1, OD450 nm, read-out: cell viability (survival rate), A375
# [21] = 72 h, drug 10 μM, 72 hours, WST-1, OD450 nm, read-out: cell viability (survival rate), HeLa
# [22] = 72 h, drug 10 μM, 72 hours, WST-1, OD450 nm, read-out: cell viability (survival rate), PC3
# [23] = 72 h, drug 10 μM, 72 hours, WST-1, OD450 nm, read-out: cell viability (survival rate), TSGH
# [24] = MCF7, 72 h, drug 10 μM, 72 hours, WST-1, OD450 nm, read-out: cell viability (survival rate), MCF7
# [25] = HL-60, 72 h, drug 10 μM, 72 hours, WST-1, OD450 nm, read-out: cell viability (survival rate), HL-60
# [26] = NCI-H1650, 72 h, read-out: cell viability (survival rate), H1650, drug 10 μM, 72 hours, WST-1, OD450 nm
# [27] = A549, 72 h, read-out: cell viability (survival rate), A549, drug 10 μM, 72 hours, WST-1, OD450 nm
# [28] = 72 h, read-out: cell viability (survival rate), AGS, drug 10 μM, 72 hours, WST-1, OD450 nm
# [29] = MKN-45, 72 h, read-out: cell viability (survival rate), MKN-45, drug 10 μM, 72 hours, WST-1, OD450 nm
# [30] = HepG2, 72 h, read-out: cell viability (survival rate), HepG2, drug 10 μM, 72 hours, WST-1, OD450 nm
# [31] = A-375, 72 h, read-out: cell viability (survival rate), A375, drug 10 μM, 72 hours, WST-1, OD450 nm
# [32] = 72 h, read-out: cell viability (survival rate), HeLa, drug 10 μM, 72 hours, WST-1, OD450 nm
# [33] = 72 h, read-out: cell viability (survival rate), PC3, drug 10 μM, 72 hours, WST-1, OD450 nm
# [34] = 72 h, read-out: cell viability (survival rate), TSGH, drug 10 μM, 72 hours, WST-1, OD450 nm
# [35] = MCF7, 72 h, read-out: cell viability (survival rate), MCF7, drug 10 μM, 72 hours, WST-1, OD450 nm
# [36] = HL-60, 72 h, read-out: cell viability (survival rate), HL-60, drug 10 μM, 72 hours, WST-1, OD450 nm
Structure (SMILES),inhibition effect on different cancer cell lines [1],"viability at 10 µM [2, 14] [%]","viability at 10 µM [3, 15] [%]","viability at 10 µM [4, 16] [%]","viability at 10 µM [5, 17] [%]","viability at 10 µM [6, 18] [%]","viability at 10 µM [7, 19] [%]","viability at 10 µM [8, 20] [%]","viability at 10 µM [9, 21] [%]","viability at 10 µM [10, 22] [%]","viability at 10 µM [11, 23] [%]","viability at 10 µM [12, 24] [%]","viability at 10 µM [13, 25] [%]","viability at 10 µM [2, 26] [%]","viability at 10 µM [3, 27] [%]","viability at 10 µM [4, 28] [%]","viability at 10 µM [5, 29] [%]","viability at 10 µM [6, 30] [%]","viability at 10 µM [8, 31] [%]","viability at 10 µM [9, 32] [%]",further results
"CC(=O)N[C@H]1[C@H]([C@H](O)[C@H](O)CO)OC(C(=O)O)=C[C@@H]1N=C(N)N [Zanamivir (Relenza), Zanamivir]",significant inhibition effect,62.7,93,75.1,85.8,110,77.3,51.5,71.8,106,88.5,69.6,146,,,,,,,,
NC(=O)C(c1ccccc1)(c1ccccc1)[C@@H]1CCN(CCc2ccc3c(c2)CCO3)C1 [Darifenacin HBr],significant inhibition effect,126,100,80.4,82.4,81.6,,60.5,87.7,86.1,99.8,59.7,78.2,,,,,,,,"viability at 10 µM ([7]; 72 h, drug 10 μM, 72 hours, WST-1, OD450 nm, read-out: cell viability (survival rate), LoVo): 93.5%"
"CC(NCCc1ccc(O)cc1)C(O)c1ccc(O)cc1 (centres unmarked) [Ritodrine hydrochloride (Yutopar), Ritodrine hydrochloride]",significant inhibition effect,,,,,,104,,,,,,,96.4,95.5,80.1,97.2,92.8,87.4,133,"viability at 10 µM [10, 33]: 113%; viability at 10 µM [11, 34]: 64.4%; viability at 10 µM [12, 35]: 86.5%; viability at 10 µM [13, 36]: 86%"
"Clc1ccc(C(Cn2ccnc2)OCc2c(Cl)cccc2Cl)c(Cl)c1 (centres unmarked) [Isoconazole nitrate (Travogen), Isoconazole nitrate]",significant inhibition effect,,,,,,,,,,,,,,,,,,,,"viability at 10 µM ([2]; NCI-H1650, drug 10 μM, 72 hours, WST-1, OD450 nm, read-out: cell viability (survival rate), H1650): 102%; viability at 10 µM ([3]; A549, drug 10 μM, 72 hours, WST-1, OD450 nm, read-out: cell viability (survival rate), A549): 91.7%; viability at 10 µM ([4]; drug 10 μM, 72 hours, WST-1, OD450 nm, read-out: cell viability (survival rate), AGS): 74.8%; viability at 10 µM ([5]; MKN-45, drug 10 μM, 72 hours, WST-1, OD450 nm, read-out: cell viability (survival rate), MKN-45): 126%; viability at 10 µM ([6]; HepG2, drug 10 μM, 72 hours, WST-1, OD450 nm, read-out: cell viability (survival rate), HepG2): 99.4%; viability at 10 µM ([7]; drug 10 μM, 72 hours, WST-1, OD450 nm, read-out: cell viability (survival rate), LoVo): 102%; viability at 10 µM ([8]; A-375, drug 10 μM, 72 hours, WST-1, OD450 nm, read-out: cell viability (survival rate), A375): 95%; viability at 10 µM ([9]; drug 10 μM, 72 hours, WST-1, OD450 nm, read-out: cell viability (survival rate), HeLa): 165%; viability at 10 µM ([10]; drug 10 μM, 72 hours, WST-1, OD450 nm, read-out: cell viability (survival rate), PC3): 82.5%; viability at 10 µM ([11]; drug 10 μM, 72 hours, WST-1, OD450 nm, read-out: cell viability (survival rate), TSGH): 88.2%; viability at 10 µM ([12]; MCF7, drug 10 μM, 72 hours, WST-1, OD450 nm, read-out: cell viability (survival rate), MCF7): 95.1%; viability at 10 µM ([13]; HL-60, drug 10 μM, 72 hours, WST-1, OD450 nm, read-out: cell viability (survival rate), HL-60): 49.2%"
C=C[C@]1(C)C[C@@H](OC(=O)CSC(C)(C)CNC(=O)[C@H](N)C(C)C)[C@]2(C)[C@H](C)CC[C@]3(CCC(=O)[C@H]32)[C@@H](C)[C@@H]1O [Valnemulin HCl],significant inhibition effect,,,,,,73.6,,,,,,,78.8,62.2,75.5,91.4,126,57.1,117,"viability at 10 µM [10, 33]: 83.4%; viability at 10 µM [11, 34]: 66.9%; viability at 10 µM [12, 35]: 66.7%; viability at 10 µM [13, 36]: 93.3%"
